The text below walks through data of patent US20230257355A1, “HYDROXAMIC ACID-CONTAINING COMPOUND, AND PREPARATION METHOD AND USE THEREOF” (CHINA PHARMACEUTICAL UNIVERSITY, priority 2020, published 2023).

In one experiment the target is T1, ASM (Homo sapiens, UniProt P17405).
T1 construct: A protein in cultivated cells was extracted, a buffer and a fluorescently-labeled reaction substrate were added; endogenous in cells
T1 sequence (P17405 47-631): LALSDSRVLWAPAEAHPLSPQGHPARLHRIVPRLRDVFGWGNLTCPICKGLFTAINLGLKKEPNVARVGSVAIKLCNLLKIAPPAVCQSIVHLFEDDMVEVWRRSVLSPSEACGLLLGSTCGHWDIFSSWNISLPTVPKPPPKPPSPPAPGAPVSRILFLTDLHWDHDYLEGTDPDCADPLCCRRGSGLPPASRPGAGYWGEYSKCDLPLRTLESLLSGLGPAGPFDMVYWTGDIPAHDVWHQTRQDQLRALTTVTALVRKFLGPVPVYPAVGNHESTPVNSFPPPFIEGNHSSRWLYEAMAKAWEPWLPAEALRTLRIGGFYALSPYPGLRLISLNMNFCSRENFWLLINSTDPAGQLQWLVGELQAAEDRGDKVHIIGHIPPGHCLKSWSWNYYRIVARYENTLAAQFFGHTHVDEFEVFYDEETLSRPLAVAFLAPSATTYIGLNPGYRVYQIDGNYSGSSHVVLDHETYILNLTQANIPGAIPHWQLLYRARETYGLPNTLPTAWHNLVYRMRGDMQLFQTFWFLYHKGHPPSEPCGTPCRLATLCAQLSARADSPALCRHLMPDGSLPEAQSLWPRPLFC
The experiment in a line: Inhibition of compounds on ASM activity (cell protein extract, fluorescently-labeled substrate). The class given is biochemical. The settings on record: for IC50: protein extracted from cultivated cells, fluorescently-labeled substrate. Here is the method:
ASM can hydrolyze sphingomyelin to produce ceramides in cells. For a specified amount of a fluorescently-labeled reaction substrate (Avanti Corporation, USA), different ASM activities catalyze the generation of a product at different amounts. Thus, an ASM activity level can be investigated by detecting a product content. The experiment design of the present disclosure is carried out according to the above principle.
A blank control group was set. After the reaction was completed, fluorescence analysis was performed, and finally an IC50 value of the compound was calculated.
A blank control group was set. After the reaction was completed, fluorescence analysis was performed.

In experiment [1] the test system is chronic depression rat model established by reserpine. The experiment in a line: Open field test (OFT) in reserpine chronic depression rat model. The class given is in vivo. The settings on record: rats. Here is the method:
(§1) In the present disclosure, a chronic depression rat model was established by reserpine (reference: NeurotoxRes, 2014, doi: 10.1007/s12640-013-9454-8). Specific experimental steps were as follows: In a normal group, 8 rats were randomly selected and raised normally. Rats in the remaining groups each were injected intraperitoneally with reserpine at 0.2 mg/kg once every day for three days. Rats in the remaining groups each were intraperitoneally injected with the compound I-1 at different doses (3 mg/kg, 6 mg/kg, and 12 mg/kg), a positive drug amitriptyline (6 mg/kg), or no drug. Two weeks after the administration, the OFT was performed (reference: China Pharmacy, 2016, 27 (19): 2697-2699), and after the OFT was completed, the SPT was performed.

The test system is the same in experiment [2]. Put plainly: Sucrose preference test (SPT) in reserpine chronic depression rat model. Format: in vivo. As to conditions: rats. As for the experimental part: as §1, with “performed. After the OFT was completed, all rats were first trained to drink 10 g/L sucrose-containing water. That is, tap water was replaced with 10 g/L sucrose-containing water within the first 48 h, then the water and food were deprived for 20 h, and then 10 g/L sucrose-containing water was provided for drinking and the drinking amount within 24 h was calculated.” for “performed.”

In experiment [3] the test system is ApoE-knockout mice AS model. Put plainly: Anti-AS effect: aortic plaque area in ApoE-knockout mice on high-fat diet. Format: in vivo. Here is the method:
The mice were randomly divided into 6 groups, with 5 mice in each group. The groups were intraperitoneally injected respectively with a blank solvent, a blank solvent, 12 mg/kg compound I-1, and 40 mg/kg compound I-1 once every day for 8 weeks. After the experiment was completed, the animals were sacrificed and main arteries were collected. The main arterial vessels were directly observed and photographed under a microscope. […] The collected arterial vessels were subjected to lipid staining with ORO and then photographed under a microscope, and image analysis was performed.

The subject of experiment [4] is ApoE-knockout mice AS model. The experiment in a line: Plasma lipid indexes in ApoE-knockout AS mice. As to conditions: versus non-administration Control group. The class given is in vivo. As for the experimental part:
The mice were randomly divided into 6 groups, with 5 mice in each group. The groups were intraperitoneally injected respectively with a blank solvent, a blank solvent, 12 mg/kg compound I-1, and 40 mg/kg compound I-1 once every day for 8 weeks. After the experiment was completed, the animals were sacrificed and main arteries were collected.

The mark [5] stands for this setting: i.p. 3, 6, 12 mg/kg, two weeks after administration.

Structures are written as SMILES.

On ASM, `COc1ccc(COc2ccc(-n3ccc4ccc(C(=O)NO)cc43)cc2)cc1` [II-2, 1-(4-((4-methoxybenzyl)oxy)phenyl)-N-hydroxy-1H-indole-6-carboxamide] gave an inhibition at 1 µM of 69% and an inhibition at 10 µM of 88%.
In the case of `N#Cc1ccc(COc2ccc(-n3cnc4ccc(C(=O)NO)cc43)cc2)cc1` [Compound I-11], on ASM, 1 µM produced 8% inhibition and 10 µM produced 83% inhibition.
Regarding `O=C(NO)c1ccc2ncn(-c3ccc(OCc4ccc(C(F)(F)F)cc4)cc3)c2c1` [Compound I-3], on ASM, the half-maximal inhibitory concentration (IC50) came to 3.68 µM.
Consider `O=C(NO)c1ccc2ncn(-c3ccc(OCc4ccc(F)cc4)cc3)c2c1` [Compound I-10], for which, on ASM, the inhibition at 1 µM is 20% and the inhibition at 10 µM turned out to be 50%.
Take `O=C(NO)c1ccc2ccn(-c3ccc(OCc4ccc(C(F)(F)F)cc4)cc3)c2c1` [II-1, 1-(4-((4-trifluoromethylbenzyl)oxy)phenyl)-N-hydroxy-1H-indole-6-carboxamide]: on ASM, the inhibition at 1 µM stood at 74% and 10 µM produced 91% inhibition.
Consider `O=C(NO)c1ccc2ncn(-c3ccc(OCc4ccc(Cl)c(C(F)(F)F)c4)cc3)c2c1` [Compound I-7], for which 0.39 µM corresponded to half-maximal inhibition against ASM (IC50).
As for `O=C(NO)c1ccc2ncn(-c3ccc(OCc4ccc(Cl)cc4)cc3)c2c1` [Compound I-1, 1-(4-((4-chlorobenzyl)oxy)phenyl)-N-hydroxy-1H-benzo[d]imidazole-6-carboxamide], half-maximal inhibition against ASM (IC50) was put at 0.47 µM. The “OFT behavioral indexes versus amitriptyline (6 mg/kg)” value in experiment [1] (high-dose 12 mg/kg i.p.) was “comparable to that of rats in the amitriptyline control group”. Moreover, in experiment [1] (setting [5]), the “OFT frequency of grooming” value is “significantly improved”, the “OFT frequency of upright” value is given as “significantly improved”, the “OFT times passing the grid” value is given as “significantly improved” and the “OFT total time in center” value is recorded as “significantly improved”. In experiment [2] (high-dose 12 mg/kg i.p.), the “SPT effect versus positive control amitriptyline (6 mg/kg)” value is reported as “slightly lower than that of the positive control drug amitriptyline”. Also, in experiment [2] (high-dose 12 mg/kg i.p., p < 0.01), the “SPT effect versus model group” value was “significantly different from that of the model group”. For the same molecule, in experiment [2] (i.p., 10 g/L sucrose water, drinking amount within 24 h), the “SPT uptake capacity for sucrose-containing water” value was “significantly restored”. Also, in experiment [3] (12 mg/kg i.p. once daily for 8 weeks), the “Plaque area of AS (ORO lipid staining)” value was “significantly reduce”. Also, the “Plaque area of AS (ORO lipid staining)” value in experiment [3] (40 mg/kg i.p. once daily for 8 weeks) is “significantly reduce”. In addition, the “Aortic arch plaque area (direct microscopy)” value in experiment [3] (i.p. once daily for 8 weeks, different doses (12 and 40 mg/kg)) is “significantly reduced”. Further, in experiment [4], the HDL in plasma result was “no impact”, the “LDL level in plasma” value is “significantly increased”, the “Total TG in plasma” value was “no impact” and the “Total cholesterol in plasma” value is “no impact”.
Regarding `O=C(NO)c1ccc2ncn(-c3ccc(OCc4cc(C(F)(F)F)cc(C(F)(F)F)c4)cc3)c2c1` [Compound I-9], on ASM, 1 µM produced 80% inhibition and the inhibition at 10 µM came to 93%.
Regarding `O=C(NO)c1ccc2ncn(-c3ccc(OCc4cccc(C(F)(F)F)c4)cc3)c2c1` [Compound I-6], at ASM, the IC50 turned out to be 1.24 µM.
At ASM, `COc1ccc(COc2ccc(-n3cnc4ccc(C(=O)NO)cc43)cc2)cc1` [Compound I-12] came in with an inhibition at 1 µM of 70% and an inhibition at 10 µM of 82%.
The molecule `O=C(NO)c1ccc2ncn(CCCOCc3ccc(C(F)(F)F)cc3)c2c1` [Compound I-5] registered an IC50 against ASM of 2.78 µM.
For the molecule `O=C(NO)c1ccc2ncn(-c3ccc(OCc4ccc(C(F)(F)F)cn4)cc3)c2c1` [Compound I-14], on ASM, the inhibition at 1 µM stood at 24% and 10 µM produced 76% inhibition.
Regarding `O=C(NO)c1ccc2ncn(-c3ccc(OCc4ccc(C(F)(F)F)cc4C(F)(F)F)cc3)c2c1` [Compound I-8], half-maximal inhibition against ASM (IC50) required 1.16 µM.
Take `O=C(NO)c1ccc2ncn(-c3ccc(OCc4ccccn4)cc3)c2c1` [Compound I-13]: on ASM, 1 µM produced 14% inhibition and the inhibition at 10 µM stood at 22%.
